Patent publication US11078171B2, “Non-ATP/catalytic site p38 mitogen activated protein kinase inhibitors” (University of Maryland, Baltimore, priority 2018, dated 2021)
Like-named read-outs stand apart in the source and are kept apart here.

Assays:
[1] = patients with hypercholesterolemia; cited from earlier work
[2] = tested on: HMVECL monolayers; test: Endothelial permeability assay (10 kDa dextran flux), TNFα/hyperthermia; assay type: cell-based, human
Procedure: Endothelial permeability assay: Permeability of HMVECL monolayers was assessed by measuring transendothelial flux of 10 kDa dextran conjugated to Cascade blue fluorescent dye for 30 min at 37° C. in Matrigel-coated 3 μm pore size Transwell plates.
The capacity of UM60 and UM101 to stabilize endothelial barriers to macromolecules and neutrophils in TNFα- and hyperthermia-stressed HMVECL monolayers was tested (FIG. 2).

[3] = tested on: HMVECLs; test: LDH release cytotoxicity assay; assay type: cell-based, human; settings: 100 μM for 48 h
Procedure: (§1) Cytotoxicity of HMVECL exposed to 10-100 μM of each compound is analyzed by MTS assay (Promega), LDH release (Promega), and immunoblotting for activated caspase-3 (Cell Signaling).

[4] = molecular target: T1, p38α (Homo sapiens, UniProt Q16539); test: Differential scanning fluorimetry (DSF), binding to p38α; settings: for stabilization of p38α (DSF): 10-100 μM; for ΔTm at 100 µM: read-out: increase of the melting temperature of p38α
[5] = molecular target: ERK2 (Homo sapiens, UniProt P28482); test: DSF, binding to ERK2; settings: 10-100 μM
Procedure: Differential Scanning Fluorimetry (DSF): Binding of CADD selected compounds to p38α and […] was tested experimentally using DSF, which evaluates changes in the target protein melting temperature (ΔTm) due to interactions with test compound. SYPRO orange (Invitrogen; diluted 1:1000 in 10 mM HEPES, 150 mM NaCl, pH 7.5) and 1 μM unphosphorylated recombinant human p38α were added to 96-well PCR plates, then 50 nM to 200 μM test compound in 100% DMSO (2% final DMSO concentration) was added, the plates mixed, sealed, centrifuged at 1000 rpm for 1 min, and melting curve performed using an Applied Biosystems real time PCR instrument. The melting point was determined from the first derivative curve. In addition, […], or target-disrupted p38α mutant are used as well.
Test compounds at 10-100 μM were screened for binding to recombinant p38α and ERK2 using DSF (FIG. 1e, Table 1).

[6] = tested on: HMVECLs; test: MTS cytotoxicity assay; assay type: cell-based, human; settings: 100 μM for 48 h
Procedure: as §1
Cytotoxicity assay: Cytotoxicity was monitored in parallel HMVEC-L monolayers established in 96-well culture plates using a colorimetric assay that measured reduction of 3-(4,5-dimethylthiazol-2-yl)-5-(3-carboxymethoxyphenyl)-2-(4-sulfophenyl)-2H-tetrazolium (MTS) to a formazan dye (CellTiter 96™; Promega; Madison, Wis.) according to the manufacturer's protocol and quantifying product formation by measuring absorption at 490 nm.

[7] = tested on: HMVECLs; test: IL-8-directed neutrophil transendothelial migration (TEM) assay; assay type: cell-based, human
Procedure: Neutrophil transendothelial migration (TEM) assay: Neutrophils were isolated from heparinized venous blood that was collected from healthy volunteers using a protocol approved by the University of Maryland Institutional Review Board and TEM of calcein-labeled neutrophils through HMVECLs was measured.

[8] = tested on: LPS/hyperthermia-induced ALI in mice; settings: for mice died within 24 h: 1000 μg i.p. 30 min prior to 50 μg LPS i.t./hyperthermia
[9] = tested on: LPS-induced acute lung injury in mice; test: Mouse LPS acute lung injury model with UM101 analogues, total protein in lung lavage fluid (FIG. 9, FIG. 10); assay type: in vivo
Procedure: FIG. 9 illustrates that UM101 and analogues inhibit acute lung injury in a mouse model. Mice were pretreated i.p. with 1 mg of test compounds and then treated with […] LPS i.t. at 39° C. to induce inflammation. Lung injury was assessed by measuring total protein in the lung lavage fluid.
FIG. 10 illustrates that UM101 and analogues inhibit acute lung injury in a mouse model. All mice received 50 μg LPS i.t. and were kept 24 h at 39° C.; all treatments 1 mg in 0.5 ml DMSO given 6 h post-LPS; mean SM, n=5, *p=0.03 vs DMSO #1; †p=0.16 vs DMSO #2. Lung injury was assessed by measuring total protein in the lung lavage fluid.
First, the compounds can block thrombin-induced cell permeability in human vascular endothelial cells (FIG. 8). […] Mice were pretreated i.p. with 1 mg of test compounds and then treated with […] LPS i.t. at 39° C. to induce inflammation. Lung injury was assessed by measuring total protein in the lung lavage fluid. […] All mice received 50 μg LPS i.t. and were kept 24 h at 39° C.; all treatments 1 mg in 0.5 ml DMSO given 6 h post-LPS; mean±SM, n=5, *p=0.03 vs DMSO #1; †p=0.16 vs DMSO #2. Lung injury was assessed by measuring total protein in the lung lavage fluid.

[10] = rheumatoid arthritis, two trials; cited from earlier work
[11] = tested on: MK2 phosphorylation in anisomycin-stimulated HeLa cells; test: Inhibition of substrate phosphorylation, phospho-MK2 immunoblot; assay type: cell-based, human; settings: 30 min pretreatment
Procedure: (§2) Inhibition of substrate phosphorylation: A functional analysis of UM101 to block p38-dependent phosphorylation of MK2 and Stat-1 was performed in HeLa cells. […] Cell extracts prepared in RIPA buffer containing protease and phosphatase inhibitors were resolved by SDS-PAGE, transferred to PVDF membrane, blocked with 5% nonfat dry milk, probed with primary antibodies against phosphorylated MK2 and Stat-1, and total p38α as a loading control. Bands were detected using secondary antibodies conjugated to infrared fluorophores and infrared fluorescence imaging (Odyssey; LICOR).

[12] = molecular target: T2, p38α mutant (R49K/HL107-8TF/K165R) (Homo sapiens, UniProt Q16539, H107T/K165R/L108F/R49K); test: DSF, binding to p38α mutant with 4 mutations in CADD-targeted pocket; settings: four of ten target pocket amino acids substituted
T2 construct: made in house; host or cells: E. coli BL21

[13] = molecular target: T3, p38β (Homo sapiens, UniProt Q15759); test: DSF, binding to p38β
T3 construct: HA (N); made in house; host or cells: E. coli BL21

[14] = molecular target: T1, p38α; test: STD-NMR with p38α; assay type: binding; design: made in house; host or cells: E. coli BL21; settings: 200 μM UM101, 5 μM protein
Procedure: (§3) Saturation Transfer Difference Nuclear Magnetic Resonance (STD-NMR): A 40 mM stock solution of UM101 was made in d6-DMSO. STD-NMR samples contained 150 mM NaCl, 50 mM phosphate, pH 7,200 μM UM101, and 5 μM p38 protein in D20. Spectra were recorded on an Agilent DD2 500-MHz spectrometer equipped with a 5-mm inverse HFCN probe head at 300 K. During each transient, the protein was saturated with a series of 58 […]-shaped pulses (50 ms, 1 ms delay between pulses) using the vendor-supplied STD-ES pulse sequence, for a total saturation time of 3 seconds. The on-resonance irradiation of protein was done at 0.5 ppm and off-resonance irradiation at 30 ppm. The vendor-supplied WATERGATE pulse sequence was used to suppress the water signal in the STD spectrum. The on-resonance and off-resonance pulse sequences were subtracted internally. A total of 16,384 transients were collected for each STD experiment with a 1 second delay between acquisitions, 6000 Hz spectral width, and 1.3 second acquisition time.
(§4) Selective binding of UM101 to the CADD-targeted pocket in p38α was confirmed using Saturation Transfer Difference (STD)-NMR. The peaks in the 1D spectrum are labeled according to tentative peak assignments of UM101 in aqueous form, based on assignments of UM101 in 2 mM d6-DMSO, which were obtained from the use of 1D proton and C13 and 2D-HMBC experiments. […]

[15] = molecular target: T3, p38β; test: STD-NMR with p38β; assay type: binding; settings: 200 μM UM101, 5 μM protein
Procedure: as §3, §4

[16] = molecular target: T4, mutated p38α (Homo sapiens, UniProt Q16539, H107T/K165R/L108F/R49K); test: STD-NMR with mutated p38α; assay type: binding; settings: 200 μM UM101, 5 μM protein
T4 construct: made in house; host or cells: E. coli BL21
Procedure: as §3, §4

[17] = tested on: Stat-1 phosphorylation in anisomycin-stimulated HeLa cells; test: Inhibition of substrate phosphorylation, phospho-Stat-1 immunoblot; assay type: cell-based, human; settings: 30 min pretreatment
Procedure: as §2

[18] = patients with Crohn's disease; cited from earlier work
[19] = patients at-risk for ARDS; cited from earlier work
[20] = FIG. 10: 50 μg LPS i.t., 24 h at 39° C., 1 mg in 0.5 ml DMSO given 6 h post-LPS
[21] = FIG. 9: pretreated i.p. with 1 mg, then 100 mg LPS i.t. at 39° C.

T1 sequence (Q16539 whole entry): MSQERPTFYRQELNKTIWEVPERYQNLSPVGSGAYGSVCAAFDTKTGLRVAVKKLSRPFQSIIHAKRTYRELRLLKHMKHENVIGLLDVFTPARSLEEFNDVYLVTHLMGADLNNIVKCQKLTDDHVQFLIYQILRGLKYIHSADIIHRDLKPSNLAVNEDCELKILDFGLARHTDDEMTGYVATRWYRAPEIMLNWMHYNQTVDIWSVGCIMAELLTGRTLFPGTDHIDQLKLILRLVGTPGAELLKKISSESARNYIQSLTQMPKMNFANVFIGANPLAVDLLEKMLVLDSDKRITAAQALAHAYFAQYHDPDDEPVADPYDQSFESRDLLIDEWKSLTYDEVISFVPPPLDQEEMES
T3 sequence (Q15759 whole entry): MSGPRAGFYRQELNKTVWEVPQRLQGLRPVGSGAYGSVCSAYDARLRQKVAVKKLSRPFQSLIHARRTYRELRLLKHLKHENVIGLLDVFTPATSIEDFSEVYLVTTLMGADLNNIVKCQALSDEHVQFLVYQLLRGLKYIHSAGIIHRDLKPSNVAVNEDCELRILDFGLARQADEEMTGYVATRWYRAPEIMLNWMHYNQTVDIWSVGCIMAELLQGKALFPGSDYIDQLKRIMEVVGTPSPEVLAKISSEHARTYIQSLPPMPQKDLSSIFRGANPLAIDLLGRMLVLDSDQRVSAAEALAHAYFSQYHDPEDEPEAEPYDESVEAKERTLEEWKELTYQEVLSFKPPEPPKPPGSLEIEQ
Chain of ERK2 (P28482 whole entry, species assumed): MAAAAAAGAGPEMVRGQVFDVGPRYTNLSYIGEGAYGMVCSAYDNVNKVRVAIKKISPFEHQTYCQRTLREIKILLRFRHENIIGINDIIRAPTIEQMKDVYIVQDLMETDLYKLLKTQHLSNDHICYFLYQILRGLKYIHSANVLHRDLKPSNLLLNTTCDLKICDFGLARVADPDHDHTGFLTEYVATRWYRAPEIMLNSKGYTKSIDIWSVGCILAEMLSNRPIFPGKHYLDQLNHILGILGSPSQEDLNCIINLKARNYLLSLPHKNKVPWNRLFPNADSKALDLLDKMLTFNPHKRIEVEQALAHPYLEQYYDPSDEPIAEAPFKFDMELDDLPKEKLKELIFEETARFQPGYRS
T4 sequence (Q16539 whole entry R49K/H107T/L108F/K165R): as the sequence (Q16539 whole entry) above, with R49K, H107T, L108F, K165R counted along it
T2 sequence (Q16539 whole entry R49K/H107T/L108F/K165R): as the sequence (Q16539 whole entry) above, with R49K, H107T, L108F, K165R counted along it

SMILES: Cc1c(F)cc(C(=O)NC2CC2)cc1-c1ccc(C(=O)NCC(C)(C)C)cn1 [losmapimod]
- serum CRP [1]: reduced serum CRP
- vascular relaxation [1]: improved vascular relaxation

SMILES: O=C1c2cc(S(=O)(=O)NCCO)ccc2-c2ccc(S(=O)(=O)NCCO)cc21 [UM60, N2,N7-di(2-hydroxyethyl)-9-oxo-9H-2,7-fluorenedisulfonamide]
- reduction of TNFα/hyperthermia-induced permeability increase ([2]; 10 μM): no effect
- reduction of TNFα/hyperthermia-induced permeability increase ([2]; 25 μM): no effect
- reduction of TNFα/hyperthermia-induced permeability increase ([2]; 100 μM): 71%
- toxicity in LDH release assay [3]: Neither compound was toxic
- stabilization of p38α (DSF) [4]: stabilized p38α
- ΔTm at 100 µM [4]: ~0.7 °C
- stabilization of ERK2 (DSF) [5]: not ERK2
- toxicity in MTS assay [6]: Neither compound was toxic
- reduction of hyperthermia-augmented neutrophil TEM ([7]; 10 μM): 18%
- reduction of hyperthermia-augmented neutrophil TEM ([7]; 25 μM): 89%
- reduction of hyperthermia-augmented neutrophil TEM ([7]; 50 μM): less than baseline levels
- mice died within 24 h [8]: Four of six

SMILES: CN(C)c1cccc2c(S(=O)(=O)Nc3ccc(CN4CCOCC4)cc3)cccc12 [SF-7-044]
- protein leak into bronchoalveolar lavage fluid (total protein) [9, 20]: reduced protein leak

SMILES: NC(=O)c1ccc(N(C(N)=O)c2c(F)cccc2F)nc1-c1ccc(F)cc1F [VX-702]
- ACR20 symptom score [10]: small increases in proportion of treated subjects with ACR20 symptom score vs. placebo

SMILES: O=C(Nc1ccc(CN2CCS(=O)(=O)CC2)cc1)c1ccc(Cl)cc1 [UM101, 4-chloro-N-{4-[(1,1-dioxo-1lambda˜6˜,4-thiazinan-4-yl)methyl]phenyl}benzamide]
- protein leak into bronchoalveolar lavage fluid (total protein) [9, 21]: reduced protein leak
- anisomycin-stimulated phosphorylation of MK2 ([11]; 50 μM): reduced
- reduction of TNFα/hyperthermia-induced permeability increase ([2]; 10 μM): 74%
- reduction of TNFα/hyperthermia-induced permeability increase ([2]; 25 μM): 89%
- reduction of TNFα/hyperthermia-induced permeability increase ([2]; 100 μM): > 100%
- toxicity in LDH release assay [3]: Neither compound was toxic
- stabilization of p38α (DSF) [4]: only stabilized p38α
- ΔTm at 100 µM [4]: ~0.7 °C
- stabilization of ERK2 (DSF) [5]: not ERK2
- binding to p38α mutant (DSF) [12]: no UM101-binding
- stabilization of p38β (DSF) [13]: only stabilized p38α
- toxicity in MTS assay [6]: Neither compound was toxic
- interaction with p38α (STD-NMR) [14]: protons in both aromatic rings of UM101 interact with p38α
- interaction with p38β (STD-NMR) [15]: much weaker
- interaction with mutated p38α (STD-NMR) [16]: much weaker
- reduction of hyperthermia-augmented neutrophil TEM ([7]; 10 μM): 95%
- reduction of hyperthermia-augmented neutrophil TEM ([7]; 25 μM): less than baseline levels
- reduction of hyperthermia-augmented neutrophil TEM ([7]; 50 μM): less than baseline levels
- reduction of lavage neutrophil content vs. DMSO-treated controls ([8]; 100 μg i.p.): 44.4%
- reduction of lavage neutrophil content vs. DMSO-treated controls ([8]; 300 μg i.p.): 49.5%
- reduction of lavage neutrophil content vs. DMSO-treated controls ([8]; 500 μg i.p.): 55.3%
- reduction of lavage neutrophil content vs. DMSO-treated controls ([8]; 1000 μg i.p.): 54%
- survival of pretreated mice ([8]; 100, 300, 500 or 1000 μg i.p., 24 h): All sixteen UM101-pretreated mice survived
- anisomycin-stimulated phosphorylation of Stat-1 ([17]; 50 μM): reduced

SMILES: C[S+]([O-])c1ccc(-c2nc(-c3ccncc3)c(-c3ccc(F)cc3)[nH]2)cc1 (centres unmarked) [SB203580, reference compound]
- anisomycin-stimulated phosphorylation of MK2 ([11]; 10 μM): reduced
- reduction of TNFα/hyperthermia-induced permeability increase ([2]; 10 μM): 50%
- stabilization of p38β (DSF) [13]: stabilized both p38α and p380
- reduction of hyperthermia-augmented neutrophil TEM ([7]; 10 μM): 84%
- reduction of lavage neutrophil content vs. DMSO-treated controls ([8]; 1000 μg i.p.): 46.8%
- mice died within 24 h [8]: one of six
- anisomycin-stimulated phosphorylation of Stat-1 ([17]; 10 μM): reduced

SMILES: O=C(Nc1ccc(CN2CCOCC2)cc1)c1ccc(Cl)cc1 [SF-7-009]
- protein leak into bronchoalveolar lavage fluid (total protein) [9, 21]: reduced protein leak
- protein leak into bronchoalveolar lavage fluid (total protein) [9, 20]: reduced protein leak

SMILES: Cc1ccc(-n2nc(C(C)(C)C)cc2NC(=O)Nc2ccc(OCCN3CCOCC3)c3ccccc23)cc1 [BIRB 796, doramapimod]
- clinical effect [18]: no clinical effect
- serum CRP levels [18]: transiently reduced

SMILES: Cc1cc(F)ccc1-c1nc(NC(CO)CO)nc2c1ccc(=O)n2-c1c(F)cccc1F [dilmapimod]
- safety [19]: safe at the doses administered
- serum C-reactive protein (CRP) levels [19]: modestly reduced
